Test results: the CheMixHub viscosity set

Assay: xn = mol fraction of the nth substance listed

C1CN2CN3CCN(CN1C3)C2 + O
viscosity [mPa·s], 101 kPa
Conditions	x1 = 0.003598	x1 = 0.007216	x1 = 0.01073	x1 = 0.01425	x1 = 0.0183
293.15 K	1.032	1.083	1.146	1.232	1.347
298.15 K	0.928	0.985	1.047	1.129	1.24
300.15 K	0.843	0.899	0.961	1.04	1.136
305.15 K	0.764	0.822	0.88	0.96	1.054

O=C(O)CC(O)(CC(=O)O)C(=O)O + CC(O)CO
101.3 kPa, x1 = 0.333
Conditions	viscosity [mPa·s]
298 K	2188
323 K	571

CCCCCBr + ClC(Cl)(Cl)Cl
viscosity [mPa·s], 101 kPa
Conditions	293.15 K	303.15 K	313.15 K	323.15 K
x1 = 0.13	0.925	0.81	0.712	0.633
x1 = 0.273	0.887	0.78	0.692	0.62
x1 = 0.429	0.863	0.76	0.675	0.602
x1 = 0.601	0.841	0.742	0.66	0.592

CC(Cl)(Cl)Cl + CCCCCOC(C)=O
303.15 K, 101.3 kPa
Conditions	viscosity [mPa·s]
x2 = 0.104	0.7366
x2 = 0.1989	0.7441
x2 = 0.2995	0.7518
x2 = 0.4018	0.7568
x2 = 0.5014	0.7653
x2 = 0.5996	0.7667
x2 = 0.6961	0.7663
x2 = 0.7935	0.7658
x2 = 0.8993	0.7589

CCCCCBr + Cc1ccc(C)cc1
308.15 K, 101 kPa
Conditions	viscosity [mPa·s]
x2 = 0.1026	0.6316
x2 = 0.1991	0.6138
x2 = 0.304	0.5958
x2 = 0.4033	0.5803
x2 = 0.503	0.5655
x2 = 0.6052	0.5526
x2 = 0.7021	0.5436
x2 = 0.8	0.5318
x2 = 0.9034	0.5238

CC(Cl)(Cl)Cl + CCOC(C)=O
Conditions	viscosity [mPa·s]
298.15 K, 101.33 kPa, x1 = 0.098	0.4485
298.15 K, 101.33 kPa, x1 = 0.197	0.4712
298.15 K, 101.33 kPa, x1 = 0.297	0.4964
298.15 K, 101.33 kPa, x1 = 0.398	0.5244
298.15 K, 101.33 kPa, x1 = 0.498	0.5554
298.15 K, 101.33 kPa, x1 = 0.598	0.5901
298.15 K, 101.33 kPa, x1 = 0.699	0.6295
298.15 K, 101.33 kPa, x1 = 0.771	0.665
298.15 K, 101.33 kPa, x1 = 0.885	0.7192
303.15 K, 101.3 kPa, x2 = 0.1006	0.6668
303.15 K, 101.3 kPa, x2 = 0.1989	0.6158
303.15 K, 101.3 kPa, x2 = 0.2986	0.5731
303.15 K, 101.3 kPa, x2 = 0.4038	0.5366
303.15 K, 101.3 kPa, x2 = 0.4965	0.5101
303.15 K, 101.3 kPa, x2 = 0.5999	0.4831
303.15 K, 101.3 kPa, x2 = 0.7003	0.4579
303.15 K, 101.3 kPa, x2 = 0.7974	0.4366
303.15 K, 101.3 kPa, x2 = 0.9008	0.4167

O=CO + O=[N+]([O-])c1ccccc1
viscosity [mPa·s], 101 kPa
Conditions	x1 = 0.1791	x1 = 0.2956	x1 = 0.4132	x1 = 0.5229	x1 = 0.6396	x1 = 0.7402	x1 = 0.8361
298.15 K	1.676	1.636	1.604	1.591	1.593	1.592	1.576
323.15 K	1.114	1.084	1.054	1.043	1.025	1.029	1.005

CC(Cl)(Cl)Cl + CC#N
303.15 K, 101.32 kPa
Conditions	viscosity [mPa·s]
x2 = 0.1263	0.6581
x2 = 0.2051	0.6229
x2 = 0.2652	0.5971
x2 = 0.3855	0.5476
x2 = 0.478	0.5114
x2 = 0.6358	0.4505
x2 = 0.6802	0.4339
x2 = 0.7999	0.3906
x2 = 0.8673	0.3675
x2 = 0.9074	0.3539

CCCCCCCCn1cc[n+](C)c1.[Cl][Fe-]([Cl])([Cl])[Cl] + CCOC(C)=O
viscosity [mPa·s], 101 kPa
Conditions	x1 = 0.0999	x1 = 0.197	x1 = 0.2987	x1 = 0.3989	x1 = 0.4986	x1 = 0.6004	x1 = 0.6958	x1 = 0.7939	x1 = 0.8777
293.15 K	1.47	3.56	7.5	13.82	23.21	37.15	58.2	85.97	111.8
298.15 K	1.38	3.24	6.65	11.97	19.68	30.95	47.6	69.55	91.12
303.15 K	1.29	2.97	5.94	10.48	16.88	26.07	39.75	56.28	73.83
308.15 K	1.21	2.72	5.33	9.22	14.61	22.2	33.32	46.86	59.83
313.15 K	1.14	2.52	4.81	8.17	12.77	19.08	28.28	39.4	49.32
318.15 K	1.07	2.33	4.37	7.31	11.24	16.49	24.27	33.42	41.48
323.15 K	1.02	2.16	3.99	6.6	9.97	14.4	20.98	28.43	35.08

CC(Cl)(Cl)Cl + CCCCO
298.15 K, 101 kPa
Conditions	viscosity [mPa·s]
x1 = 0.1022	2.187
x1 = 0.2068	1.872
x1 = 0.3061	1.611
x1 = 0.4067	1.372
x1 = 0.5174	1.164
x1 = 0.605	1.042
x1 = 0.6995	0.936
x1 = 0.7924	0.855
x1 = 0.9022	0.811

CC(Cl)(Cl)Cl + CC1CCCCC1
303.15 K, 101 kPa
Conditions	viscosity [mPa·s]
x1 = 0.1468	0.6328
x1 = 0.2138	0.629
x1 = 0.31	0.6248
x1 = 0.4182	0.6239
x1 = 0.5255	0.6301
x1 = 0.5982	0.6379
x1 = 0.69	0.6518
x1 = 0.759	0.6659
x1 = 0.8273	0.6809
x1 = 0.9075	0.7009

CC(Cl)(Cl)Cl + CC(C)=O
298.15 K, 101.33 kPa
Conditions	viscosity [mPa·s]
x1 = 0.102	0.3356
x1 = 0.2	0.3677
x1 = 0.302	0.4042
x1 = 0.401	0.4432
x1 = 0.501	0.4862
x1 = 0.549	0.5085
x1 = 0.551	0.5098
x1 = 0.601	0.5341
x1 = 0.649	0.5591
x1 = 0.651	0.56
x1 = 0.701	0.5875
x1 = 0.75	0.6158
x1 = 0.794	0.6443
x1 = 0.852	0.6824

CC(Cl)(Cl)Cl + CC(C)CCO
298.15 K, 101 kPa
Conditions	viscosity [mPa·s]
x1 = 0.113	3.084
x1 = 0.1681	2.72
x1 = 0.3013	2.01
x1 = 0.3885	1.663
x1 = 0.509	1.339
x1 = 0.5929	1.169
x1 = 0.692	1.035
x1 = 0.7926	0.913
x1 = 0.8991	0.817

CC(C)C1CCCCC1 + CCCCO
viscosity [mPa·s], 100 kPa
Conditions	x1 = 0.0995	x1 = 0.1998	x1 = 0.2959	x1 = 0.4009	x1 = 0.4944	x1 = 0.5738	x1 = 0.6818	x1 = 0.7966	x1 = 0.8935
293.15 K	2.489	2.126	1.858	1.614	1.45	1.325	1.214	1.139	1.105
298.15 K	2.189	1.884	1.654	1.449	1.31	1.207	1.114	1.051	1.022
303.15 K	1.94	1.678	1.481	1.308	1.189	1.104	1.024	0.974	0.95
308.15 K	1.726	1.501	1.332	1.185	1.085	1.014	0.947	0.905	0.885
313.15 K	1.539	1.348	1.203	1.078	0.994	0.935	0.879	0.844	0.827
318.15 K	1.379	1.216	1.092	0.985	0.915	0.866	0.818	0.789	0.774
323.15 K	1.241	1.1	0.995	0.906	0.845	0.804	0.764	0.738	0.727

CCC(N)C(=O)[O-].[K+] (stereo unspecified) + O
viscosity [mPa·s], 101.3 kPa
Conditions	x1 = 0.009	x1 = 0.019	x1 = 0.029	x1 = 0.039	x1 = 0.05	x1 = 0.06
303.15 K	0.988	1.223	1.552	1.974	2.518	3.297
308.15 K	0.884	1.093	1.394	1.74	2.206	2.877
313.15 K	0.803	0.984	1.257	1.559	1.962	2.544
318.15 K	0.728	0.89	1.133	1.399	1.757	2.257
323.15 K	0.67	0.813	1.032	1.272	1.585	2.017

O=CO + CO
303.15 K, 101 kPa
Conditions	viscosity [mPa·s]
x1 = 0.0714	0.573
x1 = 0.1463	0.609
x1 = 0.2264	0.641
x1 = 0.3137	0.658
x1 = 0.4031	0.677
x1 = 0.506	0.691
x1 = 0.6149	0.75
x1 = 0.7328	0.867
x1 = 0.8604	1.062

CC/C(C)=N/O + C1CCCCC1
viscosity [mPa·s], 101.3 kPa
Conditions	x1 = 0.0972	x1 = 0.1952	x1 = 0.2926	x1 = 0.3921	x1 = 0.4913	x1 = 0.5914	x1 = 0.6926	x1 = 0.7942	x1 = 0.8967
293.15 K	1.007	1.072	1.166	1.302	1.489	1.75	2.122	2.681	3.585
298.15 K	0.923	0.982	1.065	1.182	1.339	1.567	1.884	2.347	3.035
303.15 K	0.844	0.895	0.967	1.068	1.205	1.397	1.667	2.053	2.622

CC(Cl)(Cl)Cl + CCCO
298.15 K, 101 kPa
Conditions	viscosity [mPa·s]
x1 = 0.0572	1.789
x1 = 0.1154	1.667
x1 = 0.193	1.506
x1 = 0.3007	1.318
x1 = 0.3956	1.165
x1 = 0.49	1.045
x1 = 0.6367	0.909
x1 = 0.7983	0.824
x1 = 0.8861	0.799

CC(C)C1CCCCC1 + CCCCCCCCCCCCC
viscosity [mPa·s], 100 kPa
Conditions	x1 = 0.1077	x1 = 0.1971	x1 = 0.3025	x1 = 0.3985	x1 = 0.5016	x1 = 0.5996	x1 = 0.695	x1 = 0.799	x1 = 0.8956
293.15 K	1.773	1.7	1.619	1.549	1.473	1.4	1.328	1.253	1.18
298.15 K	1.615	1.551	1.48	1.419	1.351	1.287	1.224	1.158	1.094
303.15 K	1.476	1.421	1.358	1.304	1.245	1.188	1.134	1.075	1.017
308.15 K	1.356	1.308	1.253	1.205	1.153	1.103	1.055	1.003	0.95
313.15 K	1.251	1.209	1.16	1.118	1.072	1.028	0.984	0.938	0.889
318.15 K	1.16	1.123	1.078	1.041	1	0.961	0.922	0.88	0.836
323.15 K	1.078	1.045	1.005	0.972	0.935	0.9	0.865	0.827	0.787

O=CO + C1CCOC1
298.15 K, 101 kPa
Conditions	viscosity [mPa·s]
x2 = 0.0662	1.443
x2 = 0.1376	1.396
x2 = 0.2148	1.328
x2 = 0.2985	1.233
x2 = 0.3896	1.114
x2 = 0.4891	0.9824
x2 = 0.5983	0.8395
x2 = 0.7186	0.6886
x2 = 0.8517	0.5576

O=CO + c1ccncc1
viscosity [mPa·s], 101 kPa
Conditions	298.15 K	323.15 K
x1 = 0.1605	0.9921	0.7018
x1 = 0.3041	1.235	0.8411
x1 = 0.4426	1.783	1.154
x1 = 0.5254	2.414	1.515
x1 = 0.6438	4.255	2.347
x1 = 0.7065	5.476	2.846
x1 = 0.7478	6.13	3.143
x1 = 0.7762	6.161	3.202
x1 = 0.8243	5.312	2.873
x1 = 0.8859	3.778	2.192
x1 = 0.9381	2.657	1.616

O=C(O)CC(O)(CC(=O)O)C(=O)O + C[N+](C)(C)Cc1ccccc1.[Cl-]
Conditions	viscosity [mPa·s]
323.1 K, 101 kPa, x2 = 0.5	88750
